{
  "source": "patent US20110053900A1",
  "about": "“PROGESTERONE ANTAGONISTS SUCH AS CDB-4124 IN THE TREATMENT OF BREAST CANCER” (Repros Therapeutics inc, priority 2008, published 2011)",
  "test_system": "rabbit uterus",
  "experiment": "Anti-McGinty and anti-Clauberg assays",
  "type": "in vivo",
  "details": "average of anti-McGinty and anti-Clauberg results relative to CDB-2914 = 1.00",
  "summary_of_the_method": "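Immature female rabbits were primed with 5 μg estradiol s.c. daily for 6 days. Anti-McGinty: compound given intraluminally into a ligated uterine segment, with progesterone 267 μg/day s.c. for 3 days. Anti-Clauberg: compound oral or s.c. with progesterone 160 μg/day for 5 days. Histological endometrial proliferation inhibition, averaged over both assays, is given relative to CDB-2914.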",
  "data": [
    {"smiles": "COCC(=O)[C@@]1(OC(C)=O)CC[C@H]2[C@@H]3CCC4=CC(=O)CCC4=C3[C@@H](c3ccc(N(C)C)cc3)C[C@@]21C", "note": "[CDB-4124, 21-methoxy-17α-acetoxy-11β-(4 N,N-dimethylaminophenyl)-19-norpregna-4,9-diene-3,20-dione]", "values": [
      {"measurement": "rabbit Biol. Act.", "value": 3.60}
    ]}
  ]
}
